Patent US8298782B2, “Reversible MHC multimer staining for functional purification of antigen-specific T cells” (priority 2000, dated 2012)
pKd: −log10 of the molar value.

How the values were obtained:
[1] = test system: LLO91-99-specific T cells; test: MHC tetramer staining, TCR expression, annexin V binding and immunofluorescence of T cells; assay type: cell-based
Method: (§1) FIG. 3: Interference of MHC multimer staining with T cell function in vitro. (a) LLO91-99-specific T cells were stained for 2 hours with binding (LLO91-99/H2-K^d) or non-binding (p60217-225/H2-K^d) streptavidin-PE tetramer (“tet”) reagents at 4° C. or 37° C. MHC tetramer staining (upper), TCR expression (middle, filled black graph hidden behind TCR^high populations), and annexin V binding (lower) are shown in histogram format. (b) Immunofluorescence staining of LLO91-99-specific T cells one hour after incubation with LLO91-99/H2-K^d streptavidin-Alexa546 tetramers (red) at 4° C. or 37° C. (c) LLO91-99-specific T cells stained for 30 min with binding or non-binding tetramer reagents at 4° C., were then washed to remove unbound reagent and transferred to a chromium release assay (effector to target ratio approx. 5:1). LLO91-99 peptide concentration and percent specific lysis are shown on the x- and y-axes, respectively. The bars indicate lysis of MHC mismatched target cells (10^−8 M LLO91-99 peptide and no peptide conditions only) by effector cells treated with non-binding MHC tetramer reagents (filled bars) or binding reagents (open bars). (d) LLO91-99-specific T cells were treated as in (c), transferred into a proliferation assay in the presence of syngeneic irradiated splenocytes, and stimulated in the presence of peptide or various mitogens (x-axis).
LLO91-99 specific T cell lines were expanded in vitro as described before (18). MHC-multimer staining was performed by incubation of approximately 2 μg H2-K^d Strep-tag® II peptide multimer reagent (IBA GmbH) per 1×10^6 cells at 4° C. for 30 min. For epitope-tag staining cells were washed, fixed briefly in 1% paraformaldehyde, and subsequently stained for anti-HSV tag using an unconjugated primary mouse or rat mAb (e.g. TB067, Novagen) and a secondary anti-mouse or anti-rat-PE antibody (e.g. A85-1, PharMingen). Flow cytometry was performed using a FACSCalibur (Becton Dickinson) and FlowJo software. […] Conventional ^51Cr-release and ^3H-thymidine incorporation assays were performed as described before (18).
Phenotypic changes of cell populations have not been reported so far following epitope-specific T cell staining at low temperatures (4° C.). Under these conditions, TCR-MHC mediated signalling events become not activated. MHC multimer staining at higher temperatures (e.g. at room temperature (RT), or at 37° C.) has been performed to improve the intensity and/or stabilty of the fluorescent signal through epitope-specific internalization of the multimer. In order to analyze the impact of differential treatment of T cells on their phenotype, we compared LLO91-99-specific T cell lines following staining with LLO91-99/H2-K^d tetramers at 4° C. or 37° C. As a negative control, MHC tetramers containing different Listeria epitope ([…]) were used; these reagents cannot bind to TCRs of LLO91-99-specific T cells, thus controlling for potential peptide-independent effects.

[2] = test system: LLO91-99-specific T cells; test: 3H-thymidine incorporation proliferation assay of multimer-treated T cells; assay type: cell-based; settings: reagent remains on the cell surface
Method: FIG. 3: Interference of MHC multimer staining with T cell function in vitro. (a) LLO91-99-specific T cells were stained for 2 hours with binding (LLO91-99/H2-K^d) or non-binding (p60217-225/H2-K^d) streptavidin-PE tetramer (“tet”) reagents at 4° C. or 37° C. MHC tetramer staining (upper), TCR expression (middle, filled black graph hidden behind TCR^high populations), and annexin V binding (lower) are shown in histogram format. (b) Immunofluorescence staining of LLO91-99-specific T cells one hour after incubation with LLO91-99/H2-K^d streptavidin-Alexa546 tetramers (red) at 4° C. or 37° C. (c) LLO91-99-specific T cells stained for 30 min with binding or non-binding tetramer reagents at 4° C., were then washed to remove unbound reagent and transferred to a chromium release assay (effector to target ratio approx. 5:1). LLO91-99 peptide concentration and percent specific lysis are shown on the x- and y-axes, respectively. […]
FIG. 7: Reversible MHC multimer staining and T cell function. […] (a) Staining for recombinant MHC-molecules (detected by epitope-tag staining, x-axis) on differently treated T cells. […] Numbers of viable bacteria (y-axis) were determined 48 h following Lysteria infection. […]

[3] = test system: LLO91-99-specific T cells; test: 51Cr-release cytotoxicity assay of multimer-treated CTLs; assay type: cell-based
Method: as §1
FIG. 7: Reversible MHC multimer staining and T cell function. LLO91-99-specific T cells were stained for 30 min with binding LLO91-99/H2-K^d Strep-tag® II peptide/β2m-Strep-tag® II peptide-HSV-tag:Strep-Tactin® polypeptide (IBA GmbH) or non-binding (p60217-225/H2-K^d) multimer reagents and then extensively washed over 4 h in the presence or absence or d-biotin (1 mM, all done at 4° C.) prior to assays or adoptive transfer. (a) Staining for recombinant MHC-molecules (detected by epitope-tag staining, x-axis) on differently treated T cells. […] Numbers of viable bacteria (y-axis) were determined 48 h following Lysteria infection. […]

[4] = test system: Listeria monocytogenes; test: adoptive transfer of multimer-treated T cells, protection against Listeria infection; assay type: in vivo, BALB/c mice
Excerpt: Six hours later, mice were infected with 2×10^4 Listeria monocytogenes. […] Control mice received NaCl only.
(a) Staining for recombinant MHC-molecules (detected by epitope-tag staining, x-axis) on differently treated T cells. (b) Cytotoxicity (% specific lysis, y-axis) of differently treated T cells in response to LLO91-99 peptide-coated target cells (peptide titration, x-axis) with an effector to target cell ratio of approx. 5:1, compare with FIG. 1c. (c) Proliferation (y-axis) of differently treated T cells stimulated with epitope or various mitogens (indicated on the x-axis) in the presence of syngeneic irradiated splenocytes. Compare with FIG. 1d. (d) Protection against Lysteria monocytogenes infection following adoptive transfer of 4.1×10^6 LLO91-99-specific T cells treated with binding (LLO91-99) or non-binding (p60217-225) MHC multimer reagents (indicated to the left). […] Numbers of viable bacteria (y-axis) were determined 48 h following Lysteria infection. Data are representative of three independent experiments, each with 2 mice per group.
LLO91-99 specific T cells were stained with H2-K^d Strep-tag® II peptide multimer reagents (IBA GmbH) at 4° C. […] Adoptive cell transfer was performed by injection of 1×10^7 cells—per mouse per group—into the tail vein of naive BALB/c mice.

[5] = target: T1, Strep-Tactin® polypeptide (mutated streptavidin) (Streptomyces avidinii, UniProt P22629, E68V/S69T/V71R); settings: read-out: Kd of Strep-tag II peptide with Strep-Tactin; cited from earlier work
T1 construct: literature IBA GmbH
T1 sequence (P22629 38-163 E68V/S69T/V71R): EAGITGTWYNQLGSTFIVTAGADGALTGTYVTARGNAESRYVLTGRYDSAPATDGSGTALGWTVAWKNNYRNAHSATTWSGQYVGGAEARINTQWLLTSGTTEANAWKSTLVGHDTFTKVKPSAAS

Substance | MHC tetramer staining ([1]; 2 h incubation at 4° C.) | MHC tetramer staining ([1]; 2 h incubation at 37° C.) | annexin V binding (early marker of apoptosis) ([1]; after staining at 37° C.) | surface TCR expression ([1]; after staining at 37° C.) | immunofluorescence microscopy staining pattern ([1]; incubation at 4° C.) | immunofluorescence microscopy staining pattern ([1]; incubation at 37° C.) | proliferation in response to antigen or mitogenic stimulation [2] | lysis in the absence of peptide (spontaneous/bystander lysis) ([3]; reagent not dissociated) | maximum % specific lysis ([3]; stained CTLs washed, then 37° C., constant effector to target ratio) | peptide sensitivity of cytotoxicity ([3]; various concentrations of LLO91-99 peptide) | protection against Listeria infection following adoptive transfer ([4]; 4.1×10^6 cells, reagent not dissociated) | LLO91-99-specific T cells recovered from recipient mice after transfer ([4]; compared to control cells) | protection against Listeria infection (viable bacteria in spleen 48 h) ([4]; transfer of 1×10^6 treated CTLs) | protection against Listeria infection (viable bacteria in spleen 48 h) ([4]; transfer of 1×10^7 treated CTLs, listed as LLO91-99/H2-K^d tetramer reagents) | protection against Listeria infection (viable bacteria in spleen 48 h) ([4]; transfer of 1×10^7 treated CTLs, listed as binding MHC tetramers) | pKd [5]
LLO91-99/H2-K^d tetramers: conventional tetramers of H2-K^d/LLO91-99 complexes with PE- or Alexa546-conjugated streptavidin | high intensity staining | reduced and more diffuse staining pattern | increased binding of annexin V | substantial downregulation of surface TCR | typical surface-staining pattern | most multimers are internalized | poorly proliferate | increased lysis in the absence of LLO91-99 peptide addition | reduction in maximum % specific lysis | decreased peptide sensitivity | significantly reduced protection | much lower numbers | indistinguishable from untreated mice | dramatic loss of protective capacity | still confer some significant Listeria-specific protection | 
WSHPQFEK [Strep-tag® II peptide] |  |  |  |  |  |  |  |  |  |  |  |  |  |  |  | ~6.00
